The source of these data is US11098059B2, “PRMT5 inhibitors” (Merck Sharp & Dohme Corp., priority 2017, dated 2021).

Molecules are shown by their SMILES. Like-named read-outs stand apart in the source and are kept apart here. Some results are limits rather than exact numbers.

Test [1] has as its target Full-length (FL)-PRMT5-MEP50 enzyme complex (Homo sapiens (Human), UniProt O14744). Kind of test: PRMT5-MEP50 Enzyme Methylation Assay. On Enzyme Methylation Assay IC50 1: top concentration 100000 nM. Type of test: biochemical. As to the method:
PRMT5-MEP50 Enzyme Methylation Assay
PRMT5/MEP50 biochemical assay is a direct measurement of the methylation activity of the enzyme complex on a short peptide substrate derived from the N-terminus of H4 histone. The methylation experiment is performed with recombinant protein. The assessment of inhibitory effect (IC50) of small molecules is measured by the effectiveness of the compounds to inhibit this reaction.
To each well of a white ProxiPlus 384 well-plate, 100 nL of compound (1% DMSO in final assay volume of 10 μL) was dispensed, followed by the addition of 8 μL of 1× assay buffer (50 mM Bicine pH 8.0, 1 mM DTT, 0.004% Tween20, 0.01% BSA) containing 0.5 nM of Full-length (FL)-PRMT5-MEP50 enzyme complex (recombinant proteins from baculovirus-transfected Sf21 cells: FL-PRMT5; MW=[…] and FL-MEP50; MW=38614). Plates were sealed and placed in a 37° C. humidified chamber for 30 minutes pre-incubation with compounds. Subsequently, each reaction was initiated by the addition of 2 μL 1× assay buffer containing 75 nM biotinylated H4R3(Me1) peptide, and 15 μM S-(5′-Adenosyl)-L-Methionine Chloride (SAM). The final reaction in each well of 10 μL consists of 0.5 nM PRMT5-MEP50, 75 nM biotinylated-peptide, and 15 μM SAM. Methylation reactions were allowed to proceed for 150 minutes in a sealed plate at 37° C. Reactions were immediately quenched by the addition of 1 μL of 10% formic acid. Plates were then frozen and shipped to SAMDI™ Tech Inc. to determine the percent conversion from […]. IC50 values were determined by 7 parameters biphasic fit model plotting the percent product conversion vs. (Log10) compound concentrations.

The target in another test is PRMT5 (Homo sapiens (Human), UniProt O14744). The test can be described thus: PRMT5 Cell Target Engagement (TE) Assay. It is filed as cell-based. The note with it: treated 3 days, nuclear SDMA by high content imaging, top concentration 10000 nM. An excerpt: PRMT5 Cell Target Engagement (TE) Assay
The PRMT5 TE assay is a biomarker assay for identifying compounds that inhibit symmetric dimethylation of arginine (SDMA) of PRMT5 substrates. This assay detects symmetrically dimethylated nuclear proteins using high content imaging technology. Detection of the expression of symmetrically dimethylated nucleo proteins is through a mixture of primary rabbit monoclonal antibodies to SDMA (CST 13222), which in turn recognized by an Alexafluor 488 dye-conjugated anti-rabbit IgG secondary antibody. The IN Cell Analyzer 2200 measures nuclear Alexafluor 488 fluorescent dye intensity that is directly related to the level of expression of symmetrically dimethylated nuclear proteins at the single cell level. Nuclear AF488 dye intensities are compared to the mean value for DMSO treated cells […] to report percent of inhibition for each compound-treated well.
Each well of a BD falcon collagen coated black/clear bottom 384-well plate was seeded with 4000 MCF-7 cells and allowed to attach for 5 hours. Media from cell plate was removed at 0.5 mm above the bottom of the plate and replaced with 30 μL of fresh media containing 1.2× compounds in 0.1% DMSO. Cells were treated for 3 days in 37° C. CO2 incubator. On day 3, cells were fixed with Cytofix, permeablized with 0.4% Triton-X-100/Cytofix, and washed with D-PBS without Ca/Mg. Cells were blocked with Licor Odessey blocking reagent for one hour at room temperature, followed by incubation with anti-SDMA (1:1000) antibody at 4° C. overnight. 1 antibody was removed, followed by three washings with DPBS without Ca/Mg and 0.05% Tween20. Hoechst (5 μg/ml), Cell Mask deep stain (1:2000) and Alexa488-conjugated goat anti-rabbit IgG (2 μg/mL) was added for 1 hour at room temperature. A final washing step (three washes) was performed before sealing plate for imaging on In Cell Analyzer 2200. Images from analyzer were uploaded to Columbus (at WP) for image analysis. IC50 values were determined by 4 parameters robust fit of percent fluorescence units vs. (Log10) compound concentrations.

Where [2] appears, read: read-out: Enzyme Methylation Assay IC50_1.
Where [3] appears, read: read-out: Enzyme Methylation Assay IC50_2.
Where [4] appears, read: MCF-7 cells, read-out: TE Assay EC50.

The term EC50 denotes the concentration at which the effect is half-maximal.

Sequence of PRMT5 (O14744 whole entry): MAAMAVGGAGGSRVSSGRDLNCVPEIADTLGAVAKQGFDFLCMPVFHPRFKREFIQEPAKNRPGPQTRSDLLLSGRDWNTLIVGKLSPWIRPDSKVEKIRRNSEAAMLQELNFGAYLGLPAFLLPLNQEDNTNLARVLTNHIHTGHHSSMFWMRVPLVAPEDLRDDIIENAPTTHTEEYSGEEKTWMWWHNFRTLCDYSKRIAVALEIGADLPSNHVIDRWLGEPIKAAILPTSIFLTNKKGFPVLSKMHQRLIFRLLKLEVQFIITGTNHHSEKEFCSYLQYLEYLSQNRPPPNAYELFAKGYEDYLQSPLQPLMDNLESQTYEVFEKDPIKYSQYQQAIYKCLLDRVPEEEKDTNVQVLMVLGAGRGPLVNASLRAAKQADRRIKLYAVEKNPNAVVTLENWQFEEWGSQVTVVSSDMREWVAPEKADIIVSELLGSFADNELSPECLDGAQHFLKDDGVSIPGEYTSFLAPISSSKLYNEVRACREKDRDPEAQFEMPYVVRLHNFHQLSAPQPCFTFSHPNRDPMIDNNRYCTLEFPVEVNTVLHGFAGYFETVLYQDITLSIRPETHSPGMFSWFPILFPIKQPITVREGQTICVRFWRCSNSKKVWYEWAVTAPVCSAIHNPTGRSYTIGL
Sequence of PRMT5 (Q9BQA1 whole entry partner): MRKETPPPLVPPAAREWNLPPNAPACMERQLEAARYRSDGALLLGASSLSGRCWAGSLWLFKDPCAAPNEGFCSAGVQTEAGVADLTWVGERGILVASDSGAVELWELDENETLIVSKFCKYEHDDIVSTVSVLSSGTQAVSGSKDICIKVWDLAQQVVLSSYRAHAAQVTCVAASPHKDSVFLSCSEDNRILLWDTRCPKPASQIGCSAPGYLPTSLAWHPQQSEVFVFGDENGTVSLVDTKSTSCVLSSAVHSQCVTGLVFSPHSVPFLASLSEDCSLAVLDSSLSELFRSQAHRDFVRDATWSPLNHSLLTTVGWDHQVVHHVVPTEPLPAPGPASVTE
Sequence of Full-length (FL)-PRMT5-MEP50 enzyme complex (O14744 whole entry): as the sequence (O14744 whole entry) above
Sequence of Full-length (FL)-PRMT5-MEP50 enzyme complex (Q9BQA1 whole entry partner): as the sequence (Q9BQA1 whole entry partner) above

Turning to `CCC1CN(C[C@@H](O)[C@@H]2Cc3ccccc3CN2)C(=O)c2ccc(-c3ncnn3C3CC3)cc21` (single isomer, unassigned) [Example 10], the IC50 in test [1] (setting [2]) is 0.4 nM; in test [1] (setting [3]) it was 374 nM. Besides, the EC50 at PRMT5 (setting [4]) turned out to be 22.6 nM.

Take `CC[C@H]1CN(C[C@@H](O)[C@@H]2Cc3ccccc3CN2)C(=O)c2ccc(-c3ncnn3C)cc21` (single isomer, unassigned) [Example 8]: the results for the IC50 in test [1] (setting [2]) and in test [1] (setting [3]) were 49 nM and 28500 nM, respectively. Moreover, at PRMT5 (setting [4]), the half-maximal effective concentration (EC50) came out at 7680 nM.

For the molecule `CO[C@@H]1C[C@H]2CC[C@@H](C1)N2C(=O)c1ccc2c(c1)C(C)(C)CN(C[C@H](O)[C@@H]1Cc3ccccc3CN1)C2=O` [Example 26, 2-((S)-2-hydroxy-2-((S)-1,2,3,4-tetrahydroisoquinolin-3-yl)ethyl)-6-((1R,3R,5S)-3-methoxy-8-azabicyclo[3.2.1]octane-8-carbonyl)-4,4-dimethyl-3,4-dihydroisoquinolin-1(2H)-one], the IC50 came out at 24.3 nM in test [1] (setting [2]) and 14600 nM in test [1] (setting [3]). Also, the EC50 at PRMT5 (setting [4]) worked out at 4630 nM.

With `CC[C@H]1CN(C[C@@H](O)[C@@H]2Cc3ccccc3CN2)C(=O)c2ccc(Br)cc21` (single isomer, unassigned) [Example 2], the IC50 in test [1] (setting [2]) is 0.21 nM; in test [1] (setting [3]), 172 nM. For the same molecule, the EC50 at PRMT5 (setting [4]) stood at 213 nM.

Regarding `CC1(C)CN(C[C@@H](O)[C@@H]2Cc3ccccc3CN2)C(=O)c2ccc(N3C(=O)C4CCC3CC4)cc21` [Example 29, 2-{(2R)-2-hydroxy-2-[(3S)-1,2,3,4-tetrahydroisoquinolin-3-yl]ethyl}-4,4-dimethyl-6-(3-oxo-2-azabicyclo[2.2.2]octan-2-yl)-3,4-dihydroisoquinolin-1(2H)-one], the figures for the IC50 in test [1] (setting [2]) and in test [1] (setting [3]) were 0.84 nM and 359 nM, respectively. Moreover, the EC50 on PRMT5 (setting [4]) stood at 74.4 nM.

As for `CC[C@H]1CN(C[C@@H](O)[C@@H]2Cc3ccccc3CN2)C(=O)c2ccc(Br)cc21` (single isomer, unassigned) [Example 3], the results for the IC50 in test [1] (setting [2]) and in test [1] (setting [3]) were 411 nM and 21300 nM, respectively. The EC50 at PRMT5 (setting [4]) was at least 10000 nM.

For `CC[C@H]1CN(C[C@@H](O)[C@@H]2Cc3ccccc3CN2)C(=O)c2ccc(-c3ncnn3C)cc21` (single isomer, unassigned) [Example 5], the IC50 in test [1] (setting [2]) is 465 nM; in test [1] (setting [3]), at least 100000 nM. For the same molecule, on PRMT5 (setting [4]), the EC50 was at least 10000 nM.

With `CC[C@H]1CN(C[C@@H](O)[C@@H]2Cc3ccccc3CN2)C(=O)c2ccc(-c3ncnn3C)cc21` (single isomer, unassigned) [Example 6], the IC50 in test [1] (setting [2]) came to 3.82 nM; in test [1] (setting [3]), 5080 nM. For the same molecule, the EC50 on PRMT5 (setting [4]) was 1440 nM.

`CC1(C)CN(C[C@@H](O)[C@@H]2Cc3ccccc3CN2)C(=O)c2ccc(Br)cc21` [Example 17, 6-bromo-2-((R)-2-hydroxy-2-((S)-1,2,3,4-tetrahydroisoquinolin-3-yl)ethyl)-4,4-dimethyl-3,4-dihydroisoquinolin-1(2H)-one]: the IC50 was determined as 0.61 nM in test [1] (setting [2]) and 368 nM in test [1] (setting [3]). In addition, the EC50 on PRMT5 (setting [4]) was determined as 200 nM.

With `CC1(C)CN(C[C@@H](O)[C@@H]2Cc3ccccc3CN2)C(=O)c2ccc(-c3ncnn3C3CC3)cc21` [Example 9, 6-(1-cyclopropyl-1H-1,2,4-triazol-5-yl)-2-{(2R)-2-hydroxy-2-[(3S)-1,2,3,4-tetrahydroisoquinolin-3-yl]ethyl}-4,4-dimethyl-3,4-dihydroisoquinolin-1(2H)-one], the IC50 in test [1] (setting [2]) came out at 0.47 nM; in test [1] (setting [3]) it was 422 nM. Besides, the EC50 on PRMT5 (setting [4]) turned out to be 29.5 nM.

Consider `CC1(C)CN(C[C@H](O)[C@@H]2Cc3ccccc3CN2)C(=O)c2ccc(C(=O)N3C4COC5C4OCC53)cc21` [Example 28, 6-(hexahydro-3,6-epiminofuro[3,2-b]furan-7-carbonyl)-2-((S)-2-hydroxy-2-((S)-1,2,3,4-tetrahydroisoquinolin-3-yl)ethyl)-4,4-dimethyl-3,4-dihydroisoquinolin-1(2H)-one], for which the figures for the IC50 in test [1] (setting [2]) and in test [1] (setting [3]) were 34.3 nM and 34300 nM, respectively. Further, at PRMT5 (setting [4]), the EC50 was at least 10000 nM.

Take `CC[C@H]1CN(C[C@@H](O)[C@@H]2Cc3ccccc3CN2)C(=O)c2ccc(C(=O)N3C4CCC3COC4)cc21` (single isomer, unassigned) [Example 14]: the IC50 in test [1] (setting [2]) was 0.24 nM; in test [1] (setting [3]), 31.7 nM. The molecule also yielded an EC50 at PRMT5 (TE Assay EC50, MCF-7 cells) of 2.52 nM.

Turning to `CO[C@H]1C[C@H]2CC[C@@H](C1)N2C(=O)c1ccc2c(c1)C(C)(C)CN(C[C@@H](O)[C@@H]1Cc3ccccc3CN1)C2=O` [Example 23, 2-((R)-2-hydroxy-2-((S)-1,2,3,4-tetrahydroisoquinolin-3-yl)ethyl)-6-((1R,3R,5S)-3-methoxy-8-azabicyclo[3.2.1]octane-8-carbonyl)-4,4-dimethyl-3,4-dihydroisoquinolin-1(2H)-one], the results for the IC50 in test [1] (setting [2]) and in test [1] (setting [3]) were 0.5 nM and 97.7 nM, respectively. At PRMT5 (TE Assay EC50, MCF-7 cells), this molecule gave an EC50 of 2.14 nM.

On to `CO[C@H]1C[C@H]2CC[C@@H](C1)N2C(=O)c1ccc2c(c1)C(C)(C)CN(C[C@H](O)[C@@H]1Cc3ccccc3CN1)C2=O` [Example 24, 2-((S)-2-hydroxy-2-((S)-1,2,3,4-tetrahydroisoquinolin-3-yl)ethyl)-6-((1R,3S,5S)-3-methoxy-8-azabicyclo[3.2.1]octane-8-carbonyl)-4,4-dimethyl-3,4-dihydroisoquinolin-1(2H)-one], for which the IC50 in test [1] (setting [2]) was found to be 11.3 nM; in test [1] (setting [3]) it was 7500 nM. The EC50 at PRMT5 (setting [4]) is 2640 nM.

For the molecule `O=C1c2ccc(C(=O)N3C4CCC3COC4)cc2CCN1CC(O)[C@@H]1Cc2ccccc2CN1` (stereo partly drawn) [Example 30, 2-{2-hydroxy-2-[(3S)-1,2,3,4-tetrahydroisoquinolin-3-yl]ethyl}-6-(3-oxa-8-azabicyclo[3.2.1]oct-8-ylcarbonyl)-3,4-dihydroisoquinolin-1(2H)-one], the IC50 in test [1] (setting [2]) was 16.6 nM; in test [1] (setting [3]) it was 6280 nM. The EC50 at PRMT5 (setting [4]) is 869 nM.

On to `CC1(C)CN(C[C@@H](O)[C@@H]2Cc3ccccc3CN2)C(=O)c2ccc(C(=O)N3[C@@H]4CC[C@H]3C[C@@H](O)C4)cc21` [Example 21, 2-((R)-2-hydroxy-2-((S)-1,2,3,4-tetrahydroisoquinolin-3-yl)ethyl)-6-((1R,3R,5S)-3-hydroxy-8-azabicyclo[3.2.1]octane-8-carbonyl)-4,4-dimethyl-3,4-dihydroisoquinolin-1(2H)-one], for which the IC50 in test [1] (setting [2]) stood at 0.52 nM; in test [1] (setting [3]) it was 88.1 nM. The EC50 at PRMT5 (TE Assay EC50, MCF-7 cells) is 5.52 nM.

In the case of `CC[C@H]1CN(C[C@@H](O)[C@@H]2Cc3ccccc3CN2)C(=O)c2ccc(C(=O)N3C4CCC3COC4)cc21` (single isomer, unassigned) [Example 16], the IC50 was determined as 17.6 nM in test [1] (setting [2]) and 8840 nM in test [1] (setting [3]). The EC50 on PRMT5 (setting [4]) is 829 nM.

`CC1(C)CN(C[C@@H](O)[C@@H]2Cc3ccccc3CN2)C(=O)c2ccc(C(=O)N3C4COC5C4OCC53)cc21` [Example 27, 6-(hexahydro-3,6-epiminofuro[3,2-b]furan-7-carbonyl)-2-((R)-2-hydroxy-2-((S)-1,2,3,4-tetrahydroisoquinolin-3-yl)ethyl)-4,4-dimethyl-3,4-dihydroisoquinolin-1(2H)-one]: the IC50 in test [1] (setting [2]) came to 0.35 nM; in test [1] (setting [3]), 115 nM. Besides, the EC50 on PRMT5 (setting [4]) amounted to 18.6 nM.
